In patent US20050059634A1, “Per-6-substituted-per-6-deoxy-cyclodextrins, and use of the same to inhibit soluble beta-amyloid-peptide derived oligomers and to treat alzheimer's and related diseases” (priority 2003, published 2005):

How the values were obtained:
Aβ1-42 = target: T1, Aβ1-42 (Homo sapiens, UniProt P05067); assay: ADDLs formation dot-blot assay (Aβ oligomerization); assay type: biochemical; conditions: for IC50: purified derivatives, Aβ1-42 10 nM, dot-blot densitometry at 4 hours, read-out: IC50, inhibition of ADDLs formation
T1 construct: an aliquot of Aβ1-42 was dissolved in anhydrous DMSO
Method: Using a high throughput dot blot assay recently developed for measuring Aβ oligomerization (L. Chang et al., J. Neuromol. Chem., 20, 305-313 (2003)), various beta-CD derivatives were evaluated for an ability to inhibit oligomerization of Aβ1-42. beta-CD (1) is a cyclic glucopyranose oligomer (FIG. 1), whose shape is reminiscent of a lamp-shade, frequently depicted schematically as compound 2 in FIG. 1. Actually three different hydroxyls are present in each sugar in the beta-CD molecule, which can be readily differentiated chemically. Additionally, no plane of symmetry exists in the molecule because the cyclic α-1,4-linkage forms a torus. Consequently, the primary hydroxyl groups are not equivalent when substituted. The end result of these structural features is that symmetry operations are not possible with different substitution patterns and each pattern represents a different compound. […]
ADDLs assay The assays were performed as set forth in Wang et al., J. Med. Chem., 47(13), pages 3329-3333 (2003). […] Time-dependent ADDLs formation was monitored by diluting 4 μl of […] Aβ/DMSO solutions with 196 μl of ice-cold F12 medium to 100 nM and 10 nM Aβ, respectively. […] These F12/CD solutions then were used in ADDLs assays, and the oligomer formation monitored as described. […]
ADDLs Western blot/dot blot assays For Western blots, samples were subjected to SDS-PAGE on 16.5% Tris-tricine gels at 100V […] for 1.5 to 2 hours. […] Visualization of proteins with chemiluminescent reagents was recorded by exposure to ECL film (Amersham-Pharmacia).
Dose response curves Dose response curves were prepared by performing the aforementioned dot-blot assays with Aβ1-42 (10 nM) in the presence of purified per-6-substituted-beta-CDs at the indicated concentrations. The response was determined for the dots at 4 hours using Kodak 1D imaging software and reported as log dose response of the ratio of beta-CD to Aβ1-42 as shown in FIG. 5.

PC12 cells = conditions: Camilleri et al. 1994; cited from earlier work

T1 sequence (P05067 672-713 limits assumed): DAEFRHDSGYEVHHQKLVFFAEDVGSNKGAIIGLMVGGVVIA

IC50 (Aβ1-42) [nM] | Compound | effect on neurotoxic effects of Aβ1-40 (PC12 cells) | inhibitory activity in ADDLs formation assay (qualitative) (Aβ1-42; corresponding concentrations, same conditions as the purified derivatives)
540 | OC1C2OC(CNCc3ccco3)C(OC3OC(CNCc4ccco4)C(OC4OC(CNCc5ccco5)C(OC5OC(CNCc6ccco6)C(OC6OC(CNCc7ccco7)C(OC7OC(CNCc8ccco8)C(OC8OC(CNCc9ccco9)C(O2)C(O)C8O)C(O)C7O)C(O)C6O)C(O)C5O)C(O)C4O)C(O)C3O)C1O (stereo not drawn) [4a, per-furfurylamino-6-deoxy-beta-CD] |  | 
 | OC[C@H]1O[C@@H]2O[C@H]3[C@H](O)[C@@H](O)[C@@H](O[C@H]4[C@H](O)[C@@H](O)[C@@H](O[C@H]5[C@H](O)[C@@H](O)[C@@H](O[C@H]6[C@H](O)[C@@H](O)[C@@H](O[C@H]7[C@H](O)[C@@H](O)[C@@H](O[C@H]8[C@H](O)[C@@H](O)[C@@H](O[C@H]1[C@H](O)[C@H]2O)O[C@@H]8CO)O[C@@H]7CO)O[C@@H]6CO)O[C@@H]5CO)O[C@@H]4CO)O[C@@H]3CO [beta-CD, beta-cyclodextrin] | substantially diminishes the neurotoxic effects | did not show any detectable inhibitory activity
460 | OC1C2OC(CNCc3ccccc3)C(OC3OC(CNCc4ccccc4)C(OC4OC(CNCc5ccccc5)C(OC5OC(CNCc6ccccc6)C(OC6OC(CNCc7ccccc7)C(OC7OC(CNCc8ccccc8)C(OC8OC(CNCc9ccccc9)C(O2)C(O)C8O)C(O)C7O)C(O)C6O)C(O)C5O)C(O)C4O)C(O)C3O)C1O (stereo not drawn) [5a, per-benzylamino-6-deoxy-beta-CD] |  | 
